{"source": "patent EP1028734B1", "about": "“USE OF SPECIFIC STEADY-STATE R-TYPE CALCIUM CHANNEL BLOCKERS” (priority 1997, dated 1999)", "key": {"[1]": {"experiment": "rat paw oedema", "assay_type": "in vivo, rats", "method": "(§1) In this experiment (N =5 to 6 animals per group), the anti-oedemagenic action of compounds MV 8608 and MV 8612 against bradykinin and several mediators which are reported to be involved in the inflammatory processes, was evaluated. The procedures used to perform these experiments have been reported elsewhere (Neves et al., 1993, Eur. J. Pharmacol. 243:213-219; Campos et al., 1995, Br. J. Pharmacol. 114:1005-1013; Campos et al., 1996, Br. J. Pharmacol. 117:793-798; Eur. J. Pharmacol. 316:227-286). […] As reported previously, in rats treated […] prior to a systemic injection of LPS, both B1 and B2 kinin selective agonists caused marked oedema formation (Figures 37C and D (Campos et al., 1996, supra))."}, "[2]": {"experiment": "writhe responses in mice (acetic acid, acetylcholine, kaolin)", "assay_type": "in vivo", "conditions": "2.7 to 27 mol/kg, i.p.", "source_text": "The antinociceptive actions of compound MV 8612 and MV 8608 were investigated in different models of nociception in mice as reported previously (Vaz et al., 1996, J. Pharmacol. Exp. Ther. 278:304-312)."}, "[3]": {"test_system": "rat uterus", "conditions": "Calixto et al., 1987; cited from earlier work"}, "[4]": {"experiment": "mouse paw oedema", "assay_type": "in vivo, mice", "conditions": "i.p.", "method": "as §1\nWhen tested in mice, MV 8612 (40 to 160 nmol/paw) inhibited bradykinin and carrageenan-induced paw oedema in mice in a dose-dependent manner (Figures 46A and B)."}, "[5]": {"test_system": "L-type Ca^2+ channel", "experiment": "whole-cell voltage clamp, L-type ICa of heart cells of chick embryos", "assay_type": "cell-based", "method": "Single cells of different types in culture were prepared from biopsies of human, chick and rabbit. Known and accepted methods for the isolation of fast Na^+ current, T, L and R-type Ca^2+ channels as well as delayed outward K^+ current were used (Bkaily 1994, supra).\nThe compounds to be tested are added to the appropriate extracellular solution after recording a stable ionic current or normal steady-state level of [Ca]n and [Ca]n The effect of different concentrations of compounds are tested on the different type of current and [Ca]i of the different cell types. The effect of each concentration of the compounds in function of the time of exposure are then determined. Once the steady-state effect is reached, the second concentration is added, etc.\nIn another series of experiments (n=5), the effect of different concentrations of MV8608 (10^-11 to 10^-6M) were tested on the L-type ICa of heart cells of chick embryos using the whole-cell and experimental conditions and protocols described elsewhere by the inventors (Bkaily G. et al., 1993, supra). As for the T-type ICa' the L-type ICa was not affected by 10^-11 to 10^-10M MV8608.\nIn another series of experiments (n=4), we tested the effect of MV8612 on the L-type Ca^2+ current (ICa) in chick embryonic heart cells using the whole-cell voltage clamp technique referred to above. Superfusion with 10^-9M of MV8612 decreased ICa amplitude by 10% and increasing the concentration of the compound up to 10^-8M further decreased the current amplitude by 25%. Higher concentration of MV8612 (10^-7M) decreased the ICa amplitude by 62%."}, "[6]": {"conditions": "100 nmol/paw, rats treated 30 days prior (text LPS, Figure 37 BCG)"}, "[7]": {"conditions": "10 and 100 nmol/paw co-injected"}, "[8]": {"conditions": "10 and 100 nmol/paw, dose-dependant"}}}
{"substance": "(15R, 16R, 20S)-14, 16:15,20:16,21-triepoxi-15,16-seco 14β, 17α-pregn-5-ene-3β, 15-diol [MV8608]", "values": [{"measurement": "oedema induced by prostaglandin E2 (PGE2)", "setting": "[1]; 100 nmol/paw", "value": "partially inhibited"}, {"measurement": "oedema induced by substance P", "setting": "[1]; 100 nmol/paw", "value": "unaffected"}, {"measurement": "paw oedema induced by PAF", "setting": "[1]; 100 nmol/paw", "value": "consistently inhibited"}, {"measurement": "bradykinin-induced rat paw oedema", "setting": "[1]; [6]", "value": "significantly inhibited"}, {"measurement": "des-Arg^9-BK-induced rat paw oedema", "setting": "[1]; [6]", "value": "significantly inhibited"}, {"measurement": "carrageenan-induced paw oedema", "setting": "[1]; 10 and 100 nmol/paw", "value": "significantly prevented"}, {"measurement": "dextran-induced paw oedema", "setting": "[1]; [7]", "value": "significantly prevented"}, {"measurement": "histamine-induced paw oedema", "setting": "[1]; [7]", "value": "significantly prevented"}, {"measurement": "serotonin-induced paw oedema", "setting": "[1]; [7]", "value": "significantly prevented"}, {"measurement": "paw oedema induced by des-Arg^9-bradykinin", "setting": "[1]; 10 and 100 nmol/paw co-injected, animals treated with LPS", "value": "dose-related inhibition"}, {"measurement": "oedema formation induced by subplantar injection of ovalbumin", "setting": "[1]; 10 and 100 nmol/paw, animals actively sensitised", "value": "inhibited significantly"}, {"measurement": "bradykinin-induced hindpaw oedema", "setting": "[1]; 10 and 100 nmol/paw, animals treated with LPS", "value": "no significant effect"}, {"measurement": "potentiation of paw oedema by low dose of des-Arg^9-BK plus PAF", "setting": "[1]; [8]", "value": "prevented the potentiation"}, {"measurement": "potentiation of paw oedema by low dose of des-Arg^9-BK with PGE2", "setting": "[1]; [8]", "value": "prevented the potentiation"}, {"measurement": "antinociceptive action in the same model of pain (writhing)", "setting": "[2]", "value": "only partial or even no antinociceptive action"}, {"measurement": "contraction of rat uterus induced by BK", "setting": "[3]", "value": "selective in its ability to inhibit"}, {"measurement": "paw oedema induced by histamine", "setting": "[4]", "value": "dose-related inhibition"}, {"measurement": "paw oedema induced by serotonin", "setting": "[4]", "value": "dose-related inhibition"}, {"measurement": "bradykinin-induced paw oedema", "setting": "[4]; 30 min prior", "value": "unaffected"}, {"measurement": "ICa amplitude (L-type), further change", "setting": "[5]; 5 x 10^-7M", "value": "a further slight increase"}, {"measurement": "decrease of ICa amplitude (L-type)", "setting": "[5]; 10^-9M", "value": 10, "unit": "%"}, {"measurement": "L-type ICa", "setting": "[5]; 10^-11 to 10^-10M", "value": "not affected"}]}
